Calls of active or inactive are those of the source. The rule behind the calls is not given here.
Columns and labels:
[1] = molecular target: T1, Heat shock protein HSP 90-alpha (Homo sapiens, UniProt P07900); experiment: Binding affinity to human HSP90alpha isoform 1 N-terminal ATP binding domain (9 to 236 residues) expressed in Escherichia coli BL21(DE3) assessed as melting temperature at 100 uM by SYPRO orange dye-based thermal shift assay
[2] = system: Saccharomyces cerevisiae; experiment: Binding affinity to yeast HSP90 N-terminal ATP binding domain by high-throughput virtual screening method
[3] = molecular target: T1, Heat shock protein HSP 90-alpha; experiment: Binding affinity to 15N-labeled human HSP90alpha isoform 1 N-terminal ATP binding domain (9 to 236 residues) expressed in Escherichia coli BL21(DE3) by 1H-15N HSQC NMR spectroscopy
[4] = Aqueous solubility of the compound at >100 uM; format: physicochemical; conditions: buffer
[5] = molecular target: T1, Heat shock protein HSP 90-alpha; experiment: Binding affinity to 15N-labeled human HSP90alpha isoform 1 N-terminal ATP binding domain (9 to 236 residues) expressed in Escherichia coli BL21(DE3) assessed as reduction in protein signal intensity at 625 uM by 1H-15N HSQC NMR spectroscopy

Row | SMILES | Tm [1] [°C] | Activity [2] | Kd [3] [µM] | solubility [4] | Activity [5]
1 | CCCc1cc(C(=O)Cc2ccc3c(c2)OCO3)c(O)cc1O | 41.7 | Active | > 500 | Soluble | –
2 | O=c1c2[nH]c3ccccc3c2ncn1CCc1c[nH]cn1 | 32.3 | Active | – | Soluble | –
3 | O=c1c2[nH]c3ccccc3c2ncn1CCc1ccc(O)cc1 | 30.8 | Active | – | Insoluble | –
4 | CCOC(=O)c1cc2n(c1N)-c1ccccc1C2=O | 32.4 | Active | – | Soluble | –
5 | CCc1cc(-c2n[nH]c(C)c2-c2ccc3c(c2)OCCCO3)c(O)cc1OCC(=O)O | 32.2 | Active | – | Soluble | –
6 | COc1ccc2[nH]cc(C(=O)CN3C[C@@H]4C[C@@H](C3)c3cccc(=O)n3C4)c2c1 | 33.1 | Active | – | Soluble | –
7 | O=C(O)COc1cc(OCC(=O)O)c2c(-c3ccccc3)cc(=O)oc2c1 | 32.4 | Active | – | Soluble | –
8 | O=C(Cc1c(O)c2ccccc2[nH]c1=O)NCCO | 32.8 | Active | – | Soluble | –
9 | N=c1oc2cc(O)ccc2cc1C(=O)NCc1ccccc1 | 35.5 | Active | – | Soluble | –
10 | Cc1cc(=O)oc2cc(OCc3ccc(C(=O)O)o3)ccc12 | 32.4 | Active | – | Soluble | –
11 | O=c1c2[nH]c3ccccc3c2ncn1CCc1ccc(O)c(O)c1 | 36.5 | Active | – | Soluble | –
12 | CCOC(=O)c1ccc(-c2c(-c3cc(CC)c(O)cc3O)n[nH]c2C)o1 | 49.8 | Active | 3 | Soluble | –
13 | Cc1c(OCc2ccc(C(=O)O)o2)ccc2c3c(c(=O)oc12)CCC3 | 32.7 | Active | – | Soluble | Active
14 | CCCc1cc(C(=O)Cc2ccc(C(=O)OCC)o2)c(O)cc1O | 40.3 | Active | 2 | Soluble | –
15 | Nc1ncnc2c1ncn2[C@@H]1O[C@H](COP(=O)(O)OP(=O)(O)O)[C@@H](O)[C@H]1O | 36.7 | – | – | – | –
16 | CC(NCc1c(O)ccc2c(-c3ccccc3)cc(=O)oc12)C(=O)O (configuration not stated) | 32.5 | Active | – | Soluble | –
17 | CC(=O)Nc1ccc(N[C@@H]2O[C@H](CO)[C@@H](O)[C@H]2O)cc1 | 31.8 | Active | – | Soluble | –
18 | O=C(O)C1Cc2c([nH]c3ccccc23)C(c2ccc(O)c(O)c2)N1 (configuration not stated) | 31.3 | Active | – | Soluble | –
19 | CCc1cc(C(=O)Cc2ccc(OC)cc2)c(O)cc1O | 42.1 | Active | 20 | Soluble | –
20 | Cc1oc2cc(OCC(=O)NCO)ccc2c(=O)c1-c1ccc2c(c1)OCCCO2 | 32.4 | Active | – | Soluble | –
21 | O=C(Cc1ccc2c(c1)OCCCO2)c1ccc(O)c(O)c1O | 37.5 | Active | 370 | Soluble | –

— ChEMBL document CHEMBL3871298, “Virtual screening and biophysical studies lead to HSP90 inhibitors” (Bioorg Med Chem Lett, 2017)
